# Source: US6258845A (priority 1999, dated 2001)
# Entries after “also recorded” stand apart in the source; their conditions may differ. Where two headings read alike, the source gives them in different places.
# Experiments:
# [1] = tested on: prostaglandin E2 (PGE2) levels in flat mucosa; test: Ibuprofen one month trial, PGE2 levels in flat mucosa; conditions: 300 mg/day
# [2] = tested on: AOM-treated rat model of colon carcinogenesis; conditions: in vivo; cited from earlier work
# [3] = tested on: carcinogenesis in rodent/animal models; conditions: in vivo; cited from earlier work
# [4] = tested on: Caco-2 and clone 60 cells; test: Clonogenic assay (colony-forming efficiency), Caco-2 and clone 60 cells; assay type: cell-based, human
# [5] = human, in vivo, po; cited from earlier work
# rat enterocytes = conditions: cited from earlier work
# Ki-ras clone #60 = test: Induction of apoptosis (light microscopy) in Ki-ras clone 60; assay type: cell-based, human
# Procedure: (§1) FIG. 3. […] Apoptosis was determined by light microscopy.
# (§2) FIG. 8. […] Cells were grown over a period of 6 days. Cells were harvested at various days (0, 2, 4 and 6 days), spun onto slides and stained. Apoptosis was determined by light microscopy. Percentage of apoptotic cells was calculated as the number of apoptotic cells out of the total cells counted times 100. At least 500 cells were counted for each sample.
# (§3) Cells were grown over a period of 6 days. Cells were harvested at various days (0, 2, 4 and 6 days), spun onto slides and stained. Apoptosis was determined by light microscopy. Percentage of apoptotic cells was calculated as the number of apoptotic cells out of the total cells counted times 100.
# Caco-2 parental cells [6] = test: Induction of apoptosis (light microscopy) in Caco-2 parental cells; assay type: cell-based, human
# Procedure: as §1, §2, §3
# [7] = tested on: Caco-2 parental cells, Ki-ras clone #60 and Ki-ras clone #66; test: Viable cell number (trypan blue dye exclusion), growth of Caco-2 parental and Ki-ras transfected cells; assay type: cell-based, human
# [8] = tested on: Ki-ras transfected Caco-2 cells; test: Induction of apoptosis in Ki-ras transfected versus parental Caco-2 cells; assay type: cell-based, human; conditions: 120 μM sulfide, 600 μM sulfone
# Procedure: as §1
# Ki-ras clone #66 = test: Induction of apoptosis (light microscopy) in Ki-ras clone 66; conditions: 120 μM sulindac sulfide; printed 'clone 6'
# polyamine levels = assay type: in vivo, human
# Source text: Based on this information a dose of 0.2 Gm/M^2 /day will be used for the current trial.
# platelet counts = conditions: continuous infusion for 12 days; cited from earlier work
# Ki-ras clone #60 cells = test: Clonogenic assay (colony-forming efficiency), Ki-ras clone 60; assay type: cell-based, human; conditions: Homo sapiens, Caco-2, 24 h; read-out: decrease in cell survival compared to untreated transfectants
# [9] = tested on: tumors harboring Ki-ras mutations in AOM-treated rats; conditions: cited from earlier work
# Caco-2 parental cells [10] = conditions: long-term survival, Caco-2 cells
# Caco-2 parental cells [11] = test: cells; conditions: Homo sapiens, Caco-2, 24 h, read-out: cell survival
# [12] = tested on: colorectal tissue polyamine contents
# Procedure: All biopsies were performed between 9:00 a.m. and noon to avoid possible effects of diurnal variation in laboratory endpoints.
# human cancer = conditions: cited from earlier work
# [13] = tested on: ornithine decarboxylase (ODC); conditions: cited from earlier work
# tumor putrescine levels = conditions: DFMO infusion, cited from earlier work
# [14] = tested on: intracellular putrescine and spermidine; conditions: cited from earlier work
# [15] = tested on: tissue polyamine contents (Barrett's lesion, normal squamous esophagus, gastric tissue, small bowel); test: DFMO in Barrett's esophagus patients, tissue polyamine contents; assay type: in vivo, human; conditions: 1.5 gm/m^2 per day, 12 weeks
# Source text: ODC activities and polyamine contents varied in each site analyzed. The rank orders were Barrett's>small bowel~normal esophagus>gastric tissue for ODC activities, and small bowel≥Barrett's~normal esophagus>gastric tissue for putrescine contents.
# hearing [16] = conditions: cited from earlier work
# Ki-ras clones 60 and 66 = test: cells; conditions: Homo sapiens
# [17] = human, in vivo
# hearing [18] = test: DFMO effects on hearing / ototoxicity in patients; conditions: 0.25 g/m^2 /d
# [19] = tested on: ODC and polyamine contents; test: DFMO effect on colorectal and buccal mucosa ODC and polyamine contents; assay type: in vivo, human
# Source text: When the inventors started these studies, their hope was that the effects of polyamine syntheses inhibitors in easily accessible tissues, such as buccal mucosa in the oral cavity, would be representative of inhibitor effects in less accessible tissue of the gastrointestinal tract. To test this hypothesis, the inventors measured ODC activity and polyamine contents in buccal mucosa isolated from normal human volunteers. […] From these studies, the inventors concluded that the buccal mucosal was not a useful surrogate tissue in which to measure the effects of polyamine synthesis inhibitor on other GI tissues.
# MCA sarcoma = conditions: in vivo; cited from earlier work
# [20] = listed as α-Difluoromethylornithine (DFMO)
compound,measurement,setting,value
CC(C)Cc1ccc(C(C)C(=O)O)cc1 (centres unmarked) [ibuprofen],PGE2 levels in flat mucosa,[1],significant decrease
same,inhibition of colon carcinogenesis in AOM-treated rat model,[2],effectively inhibit colon carcinogenesis
same,chemoprevention / inhibition of tumor development in animal models,[3],less effective than other NSAIDs
CSc1ccc(/C=C2/C(C)=C(CC(=O)O)c3cc(F)ccc32)cc1 [sulindac sulfide],survival normalized to like DFMO-treated controls,"[4]; 5 mM DFMO, increasing concentrations of sulindac sulfide",the survival rates of the DFMO-treated cells mirrored those of the non-DFMO-treated cells
same,IC50,"[4]; Homo sapiens, Caco-2, 24 h, read-out: 50% decrease in cell number",~225 µM
same,effect of Ki-ras activation on viability / colony-forming efficiency after sulindac metabolite,"[4]; increasing concentrations, 24 h",did not reveal any differences in colony-forming efficiency between Ki-ras transfectants and parental Caco-2 cells
same,mean half-life,[5],16.4 h
same,resistance to apoptosis on Ki-ras activation,rat enterocytes,confers resistance to apoptosis
same,time of peak apoptosis,Ki-ras clone #60; 120 μM sulindac sulfide,4 days
same,time of peak apoptosis,"Caco-2 parental cells [6]; 120 μM sulindac sulfide, Caco-2 parental",8 days
same,Ki-ras selective toxicity / Ki-ras-specific effect on growth,[7]; 120 μM sulindac sulfide or 600 μM sulindac sulfone,nor did sulindac sulfide or sulfone exert a Ki-ras-specific effect on growth
same,number of viable cells,"[7]; 120 μM sulindac sulfide, 10-day growth",remained relatively unchanged throughout the 10-day growth period
same,onset of apoptosis in Ki-ras transfected cells compared with parental cells,[8],accelerate the onset of apoptosis; also recorded: occurred several days earlier in Ki-ras transfected cells than in parental cells
same,time of peak apoptosis,Ki-ras clone #66,6 days
"NCCCC(N)(C(=O)O)C(F)F (racemic) [DFMO, 2(Difluoromethyl)-DL-ornithine]",lowest dose that may produce a persistent effect on polyamine levels,polyamine levels; 12 months,0.10 Gm/M^2 /day
same,audiotoxicity,polyamine levels; in vivo,no audiotoxicity was evident
same,patients coming off study,polyamine levels; in vivo,came off study more frequently
same,side-effects after one year,polyamine levels; in vivo,equivalent to placebo
same,platelet counts,platelet counts,significantly reduces platelet counts compared with controls
same,cytotoxicity at 5000 µM,Ki-ras clone #60 cells,60%
same,amount of biochemically active p21 ras in existing tumors,[9],reduced the amount of biochemically active p21 ras in existing tumors
same,tumors harboring Ki-ras mutations,[9]; reduced from 90%,36%
same,effect of DFMO on toxicity of the sulindac metabolites,Caco-2 parental cells [10],did not increase the toxicity of the sulindac metabolites in long-term survival studies
same,viability at 5000 µM,Caco-2 parental cells [11],~100%
same,lowest dose safe and effective in reducing colorectal mucosal polyamine contents,"[12]; daily orally, 28 days",0.25 gm/m^2
same,lowest dose with evident effects on polyamine metabolism,"[12]; phase IIa, one month",0.2 Gm/M^2 /day
same,lowest dose decreasing putrescine content,"[12]; single daily oral doses, 4 wk, colorectal biopsies",0.25 gm/m^2
same,activity in chemotherapy trials,human cancer; human cancer,not to be an active cytotoxic agent
same,activity in malignant brain tumors,human cancer; malignant brain tumors,moderate activity
same,inhibition of ODC,[13],"powerful inhibitor of ODC, both in vitro and in vivo"
same,inhibition of ODC,[13]; [20],"enzyme-activated, irreversible inhibitor of ornithine decarboxylase (ODC)"
same,percentage of apoptotic cells,"Ki-ras clone #60; day 6, 5 mM DFMO, with or without sulindac sulfone (so in the source)",15%
same,increase in apoptosis,"Caco-2 parental cells [6]; 5 mM DFMO, with or without sulindac sulfone (so in the source), parental Caco-2",only a modest increase in apoptosis
same,trypan blue dye exclusion,"[7]; 5 mM DFMO continuously, short-term growth",exclusion of trypan blue dye in either the Ki-ras cells or parentals was unaffected
same,decrease in tumor putrescine levels,tumor putrescine levels; rat-tumor model,90%
same,peripheral platelet counts,tumor putrescine levels,without suppressing peripheral platelet counts
same,uptake of exogenous putrescine,[14]; cells treated in vivo,significantly increase their uptake of exogenous putrescine
same,intracellular polyamine concentrations,[14],decrease in putrescine and spermidine concentrations
same,intracellular polyamine concentrations,[14]; [20],"depletion in the intracellular concentrations of putrescine and its derivative, spermidine"
same,spermidine contents,[15]; Barrett's lesions and normal squamous esophageal tissue,suppressed by systemic DFMO treatment and recovered to untreated control values when DFMO therapy was discontinued
same,spermidine and spermine levels,[15]; gastric tissue and small bowel,did not affect the levels of either of these two amines in gastric tissue and small bowel
same,effects on hearing,hearing [16]; 0.4gr/M^2 /day for up to one year,not observed
same,audiometric changes,hearing [16]; about 6 months at 0.50 g/m^2 /d (total dose 90 gm),no audiometric changes
same,patients with hearing losses,hearing [16]; cumulative doses above 250 g/m^2,up to 75 % of patients
same,patients with demonstrable hearing deficit,hearing [16]; cumulative doses below 150 g/m^2,less than 10 % of the patients
same,"effects on hearing / hearing loss, reversibility",hearing [16]; other clinical trials,"hearing loss, which was reversible after the drug treatment was discontinued; also recorded: totally reversible upon drug discontinuation; also recorded: effects on hearing at high doses of 4 gr/M^2 /day that resolve when it is discontinued"
same,chemoprevention / inhibition of tumor development in animal models,[3],potent inhibitor of carcinogenesis; also recorded: inhibits the development of many cancers including carcinogen-induced colon polyps and cancer; also recorded: inhibits colon carcinogenesis in carcinogen-treated rodents
same,IC50,"Ki-ras clones 60 and 66; 24 h, read-out: concentration at 50% cell survival",500 µM
same,minimal effective concentration,"Ki-ras clones 60 and 66; 24 h, read-out: lowest concentration (selectively) toxic to cells with an activated Ki-ras",50 µM
same,viability at 5000 µM,"Ki-ras clones 60 and 66; Caco-2, 24 h, read-out: cell survival, of controls",20 to 40%
same,inhibition at 5000 µM,"Ki-ras clones 60 and 66; Caco-2, 24 h, read-out: reduction of colony-forming efficiency of the Ki-ras transfectants",40%
same,wound healing problems,[17],problems with wound healing have not been experienced
same,expected onset of hearing loss,hearing [18],> 800 days
same,buccal mucosal ODC and polyamine contents,[19]; buccal mucosa,unaffected
same,polyamine contents in colorectal tissue biopsies,[19]; colorectal tissue,reduced polyamine contents in colorectal tissue biopsies
same,growth of MCA sarcoma,MCA sarcoma,reduces the growth rate of an MCA sarcoma but does not produce tumor regression
